Data from patent US7553861B2, “Dipeptidyl peptidase-IV inhibitors” (Alantos Pharmaceuticals Holding, Inc., priority 2005, dated 2009).

What follows are compounds tested against T1, DPP-IV (Homo sapiens, UniProt P27487) (assay: Assay for determining DP-IV inhibition (fluorometric, Gly-Pro-AMC substrate)). Settings: Inhibition of DPP-IV, K(i) calculated from IC(50) with IC(50)=K(i)(1+[S]/Km), pH 8.0.
T1 construct: purchased R&D Systems GmbH, Germany
Type: biochemical
Experimental: The inhibitory activity of compounds against DPP-IV can be determined by in vitro assay systems, which are themselves well established in the art. The assay results given in Table 5 were obtained according to the following method, employing a modified version of the assay described by Leiting et al., in an article entitled “Catalytic properties and inhibition of proline-specific dipeptidyl peptidases II, IV and VII” in Biochem. J. Vol. 371, pages 525-532 (2003):
DPP-IV activity was determined fluorometrically with Gly-Pro-AMC (where AMC stands for 7-amido-4-methylcoumarin, Bachem AG, Switzerland) as substrate. The reaction mixture contained 10 μl of 1 ng/μl DPP-IV (R&D Systems GmbH, Germany) and 80 μl of 25 mM Tris/HCl buffer, pH 8.0. Compounds were supplied as DMSO stock solutions and diluted in assay buffer to a maximal DMSO concentration of 1% in the assay. Prior to start of the reaction, the mixture was incubated for 30 min at room temperature. The reaction was started by addition of 10 μl of 100 μM substrate solution.
The fluorescence intensity was measured at excitation and emission wavelengths of 355 and 460 nm, respectively, in a FluoStar Galaxy Multiwell Plate (BMG Labtech, Germany). Fluorescence was determined 3 and 4 minutes after start of reaction and increase in fluorescence was used for determination of enzymatic activity. IC(50) values of tested compounds were determined via plotting enzymatic activity versus concentration of test compound and determining the concentration of test compound which yields a 50% inhibition of enzymatic activity.
K(i) values were calculated using the Michaelis-Menten equation for competitive inhibition: IC(50)=K(i)(1+[S]/Km)

T1 sequence (P27487 whole entry): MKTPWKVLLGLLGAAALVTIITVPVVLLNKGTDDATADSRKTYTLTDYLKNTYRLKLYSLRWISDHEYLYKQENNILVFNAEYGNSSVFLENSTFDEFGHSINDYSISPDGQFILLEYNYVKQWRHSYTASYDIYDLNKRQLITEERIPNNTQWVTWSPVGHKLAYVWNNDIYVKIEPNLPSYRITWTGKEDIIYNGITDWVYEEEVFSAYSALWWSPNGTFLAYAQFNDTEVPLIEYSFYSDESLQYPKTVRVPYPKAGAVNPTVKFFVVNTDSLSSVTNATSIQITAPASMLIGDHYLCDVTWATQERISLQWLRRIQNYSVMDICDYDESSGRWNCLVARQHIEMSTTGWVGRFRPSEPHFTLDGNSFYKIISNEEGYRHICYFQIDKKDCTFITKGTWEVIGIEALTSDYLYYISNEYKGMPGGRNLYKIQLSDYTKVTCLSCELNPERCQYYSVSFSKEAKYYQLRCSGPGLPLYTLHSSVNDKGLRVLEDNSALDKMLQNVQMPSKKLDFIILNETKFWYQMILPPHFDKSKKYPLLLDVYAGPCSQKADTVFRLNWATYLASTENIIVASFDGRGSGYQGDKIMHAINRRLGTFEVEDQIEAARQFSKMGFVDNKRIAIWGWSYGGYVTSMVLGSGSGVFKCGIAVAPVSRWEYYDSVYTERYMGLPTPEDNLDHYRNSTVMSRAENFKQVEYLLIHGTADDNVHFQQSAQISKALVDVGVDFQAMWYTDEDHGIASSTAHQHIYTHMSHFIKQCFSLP

Question: Which Ki does the source give for `N#C[C@@H]1CCCN1C(=O)[C@@H](N)CN1C(=O)[C@@H]2C[C@H]1CN2C(=O)Cc1cccs1` [Example 70] here?
Answer: 6 to 50 nM

Question: With `N#C[C@@H]1CCCN1C(=O)[C@@H](N)CN1C(=O)[C@@H]2C[C@H]1CN2C(=O)c1cnccn1` [Example 71] as the compound, how does the Ki read?
Answer: 6 to 50 nM

Question: For `N#C[C@@H]1CCCN1C(=O)[C@@H](N)CN1C(=O)[C@@H]2C[C@H]1CN2C(=O)CC1c2ccccc2C=Cc2ccccc21` [Example 72], which Ki is on record?
Answer: < 6 nM

Question: `N#C[C@@H]1CCCN1C(=O)[C@@H](N)CN1C(=O)[C@@H]2C[C@H]1CN2C(=O)OCC1c2ccccc2-c2ccccc21` [Example 73] was tested. Which Ki did it give?
Answer: 6 to 50 nM

Question: Which Ki does the source give for `Cc1ccc(S(=O)(=O)NC(=O)N2C[C@@H]3C[C@H]2C(=O)N3C[C@H](N)C(=O)N2CCC[C@H]2C#N)cc1` [Example 74] here?
Answer: 51 to 500 nM

Question: With `CC(C)(C)NC(=O)N1C[C@@H]2C[C@H]1C(=O)N2C[C@H](N)C(=O)N1CCC[C@H]1C#N` [Example 75] as the compound, how does the Ki read?
Answer: 51 to 500 nM

Question: `N#C[C@@H]1CCCN1C(=O)[C@@H](N)CN1C[C@@H]2C[C@H]1CN2C(=O)Cc1cccs1` [Example 76] was tested. Which Ki did it give?
Answer: 6 to 50 nM

Question: Which Ki does the source give for `N#C[C@@H]1CCCN1C(=O)[C@@H](N)CN1C[C@@H]2C[C@H]1CN2S(=O)(=O)c1cccc(F)c1` [Example 77] here?
Answer: < 6 nM

Question: With `N#C[C@@H]1CCCN1C(=O)[C@@H](N)CN1C[C@@H]2C[C@H]1CN2c1cccc(F)c1` [Example 78] as the compound, how does the Ki read?
Answer: 6 to 50 nM
